This is an account of results in US4341770A, “Method of controlling ureaplasma infections” (Eli Lilly and Company, priority 1981, dated 1982).

Test [1] relates to Ureaplasma isolate 763T-2. The test can be described thus: conventional broth-dilution assay, MIC against Ureaplasma isolate 763T-2. The format is cell-based. The text has this: (§1) For example, in the conventional broth-dilution assay, OMT had minimal inhibitory concentrations (MIC's) against four isolates of Ureaplasma as shown in Table I.
The subject of test [2] is Ureaplasma isolate 765T-3. The test can be described thus: conventional broth-dilution assay, MIC against Ureaplasma isolate 765T-3. The format is cell-based.
Description: as §1

Test [3] concerns Ureaplasma isolate 773T-2. The test can be described thus: conventional broth-dilution assay, MIC against Ureaplasma isolate 773T-2. In kind it is cell-based.
Description: as §1

Test [4] concerns Ureaplasma isolate 779T-3. As to the kind of experiment: conventional broth-dilution assay, MIC against Ureaplasma isolate 779T-3. In kind it is cell-based.
Description: as §1

Test [5] can be described thus: Treatment of naturally occurring pneumonia in calves with OMT (Example 1). In kind it is in vivo. Particulars: for temperature averages of the calves: controls remained above 40° C. for 10 days; for calves that died: six of ten placebo-treated died. How it is done: Example one illustrates the useful in vivo activity of OMT against Ureaplasma. In the example OMT (free base) was administered in an aqueous propylene glycol solution, and non-medicated water and feed were provided to the animals ad libitum.
(§2) OMT was evaluated in calves for the treatment of naturally occurring pneumonia. Calves were purchased and transported to Lilly Research Laboratories, Greenfield, Indiana. The calves were weighed, bled, identified with eartags and allotted into pens soon after arrival. Rectal temperatures were taken and clinical observations were made daily.
(§3) Calves were put on test at the first signs of respiratory disease which included ocular and nasal discharges, pyrexia and/or depression.
(§4) Treated calves were injected intramuscularly with OMT in an aqueous propylene glycol vehicle. The treatment doses evaluated were 12.5 mg/kg and 25 mg/kg once a day for five days. Control calves were treated with placebo. There were 10 calves per group. Calves that died were examined at necropsy for lesions indicative of pneumomia. Surviving calves were killed seven days after the last treatment and examined for lesions at necropsy.

In test [6] the test system is Ureaplasma species. As to the kind of experiment: Treatment of pneumonia in calves (Example 1): isolation of Ureaplasma from lung tissue. The format is in vivo. The method, then: as §2, §3, §4
Test [7] deals with Pasteurella species. As to the kind of experiment: Treatment of pneumonia in calves (Example 1): control of Pasteurella. In kind it is in vivo. The method, then:
as §2, §3, §4

Test [8] in a line: Prevention of naturally occurring pneumonia in calves with OMT (Example 2). The format is in vivo. Particulars: for cumulative mortality: 19 calves per group. The method, then: OMT was evaluated in calves for the prevention and control of naturally occurring pneumonia. Calves were purchased and transported to Lilly Research Laboratories, Greenfield, Ind. Soon after arrival the calves were weighed, bled, identified with eartags and allotted into pens. There were 19 calves in the OMT-treated group and 19 calves in the nontreated control group.
OMT was prepared as an injectable in an aqueous propylene glycol vehicle. The treated calves were each injected subcutaneously with 35 mg/lb (77 mg/kg) of OMT within a day after arrival. At this dose and route of administration, the drug was expected, based on blood level studies, to persist for seven days in the treated calves. The calves were each retreated with the same dose seven days later. Rectal temperatures were taken and clinical observations were made daily. Calves that died were examined at necropsy for lesions indicative of pneumonia.

Test [9] deals with gram-positive bacteria. Particulars: taught by U.S. Pat. No. 3,459,853; cited from earlier work.
Test [10] concerns Ureaplasma species. The note with it: background statement; cited from earlier work.
[11] abbreviates: 12.5 mg/kg intramuscular once a day for five days.
Where [12] appears, read: 25 mg/kg intramuscular once a day for five days.
The mark [13] stands for this setting: 77 mg/kg subcutaneous, repeated after seven days, 14-day observation.

Converted amounts (≈) assume the structure as drawn.

The MIC is the smallest concentration in the dilution series that meets the test's criterion for growth inhibition. A higher MIC goes with a less susceptible organism. For `CCC1OC(=O)CC(O)C(C)C(OC2OC(C)C(O)C(N(C)C)C2O)C(CC=O)CC(C)C(=O)C=CC(C)=CC1CO` (stereo not drawn) [OMT, 5-O-mycaminosyl tylonolide], the MIC in [1] was found to be 0.78 µg/mL (≈ 1.3 µM); in test [2], 1.56 µg/mL (≈ 2.61 µM); in [3], 1.56 µg/mL (≈ 2.61 µM); in test [4], 1.56 µg/mL (≈ 2.61 µM). For the same compound, the Scours entry in test [5] (setting [11]) is recorded as “reduced”; in test [5] (setting [12]) it was “reduced”; in test [8] (setting [13]), “less severe”. Also, the ocular discharge result in test [5] (setting [11]) and in [5] (setting [12]) was “reduced” in each case. The “temperature averages of the calves” value in test [5] (setting [11]) and in [5] (setting [12]) was “lowered to normal by the second day of treatment” throughout. For the same compound, the calves that died result in test [5] (setting [11]) and in test [5] (setting [12]) was “two of ten” each time. Also, the “Ureaplasma species isolated from lung tissue” value in test [6] (12.5 mg OMT/kg intramuscular once a day for five days, also isolated with placebo) is listed as “isolated from lung tissue”. Further, in [6] (setting [12]), the “elimination of the Ureaplasma species from the animals” value is “eliminated the Ureaplasma species”. For the same compound, in [6] (25 mg/kg intramuscular once a day for five days, isolated from lung tissue of placebo calves), the “Ureaplasma species isolated from calves” value was “not isolated”. For the same compound, the “control of Pasteurella species associated with this pneumonia” value in test [7] (setting [11]) and in [7] (setting [12]) was “effectively controlled” throughout. Besides, the “preventing death of calves due to a severe pneumonia” value in test [8] (77 mg/kg subcutaneous, repeated after seven days) was “very effective in preventing death of calves”. The “nasal and ocular discharges” value in [8] (setting [13]) is listed as “less severe”. For the same compound, the average temperatures entry in test [8] (77 mg/kg subcutaneous, repeated after seven days, 14-day observation, vs non-medicated controls) is listed as “lower”. Moreover, the “alertness and condition of calves” value in test [8] (77 mg/kg subcutaneous, repeated after seven days, vs controls) is “more alert and in better condition than the controls”. Further, the cumulative mortality turned out to be 0 in test [8] (day 1, control 0); 0 in [8] (day 2, control 0); 0 in test [8] (day 3, control 0); 0 in test [8] (day 4, control 1); 0 in test [8] (day 5, control 3); 0 in test [8] (day 6, control 5). The cumulative mortality in [8] (day 7, control 5) is listed as 0; in [8] (day 8, control 5), 0; in test [8] (day 9, control 9), 0; in test [8] (day 10, control 11), 0; in [8] (day 11, control 13), 0; in [8] (day 12, control 14), 0. Further, the cumulative mortality in test [8] (day 13, control 14) is on record as 2; in test [8] (day 14, control 15), 3. In addition, the “calves that died with extensive pathologic lesions indicative of severe pneumonia” value in [8] (necropsy, 14 of the 15 control calves) was 3 calves. Further, the “inhibition of gram-positive bacteria” value in [9] is “inhibited gram-positive bacteria”.
Consider `CCC[C@@H]1C[C@@H](C(=O)N[C@@H]([C@H]2O[C@H](SC)[C@H](O)[C@@H](O)[C@H]2O)[C@@H](C)O)N(C)C1` [lincomycin], for which, in test [10], the “resistance of Ureaplasma species” value is recorded as “resistant”.
